# Values quoted from earlier work, collected in patent publication US20240307316A1, “ANTIOXIDANT AND OXYGEN-RELEASING LIGNIN COMPOSITES TO ACCELERATE WOUND HEALING” (Board of Supervisors of Louisiana State University and …, priority 2023, published 2024).
# Like-named read-outs stand apart in the source and are kept apart here.
# Tests used:
# [1] = tested on: 3T3 FBs
Compound,concentrations exhibiting cytotoxicity [1],solubility limit [µg/mL],solubility (at 20° C.) [µg/mL],solubility (at 18° C.) [µg/mL]
"[Ca+2].[O-][O-] [CaO2, Calcium peroxide]",higher than 10 mg/mL,1650,1650,–
"[Mg+2].[O-][O-] [MgO2, magnesium peroxide]",–,–,–,860
